Reference: patent publication US10548911B2, “Small molecule anti-scarring agents” (UNIVERSITY OF ROCHESTER, priority 2014, dated 2020)

System: TGFβ signaling
Assay: Chembridge collection screen with HEK293-Thy1 SBE-Luc cell line (normalized luciferase activity)
Type: cell-based, human
Conditions: Chembridge collection re-screen
From the text: Using the recombinant HEK293-Thy1 SBE-Luc cell line described in the preceding Examples, the Chembridge collection of 20,000 small molecules was screened to identify other small molecules that inhibit TGFβ activity and, thus, may be novel anti-scarring compounds
100 top candidates from the initial screen were re-screened. Numbers indicate the Chembride molecule ID number. The second screen controls for toxicity and non-specific effects by using a constitutive luciferase to normalize results. This assay can be further used in a high throughput fashion to analyze newly derived compounds and monitor structure activity relationships (SAR) to discover new molecules that can serve as the basis for anti-scarring therapeutics.
The two-dimensional structures of the molecules are depicted in the left hand column. Chembridge collection IDs are listed in the second column and the additional columns denote the following (in order): the molecular name, the percent inhibition of the molecule using the screen (100% being a complete inhibition) (% Inhib.), and the internal key (key) for further identification in FIGS. 22 and 23.

Compound | % Inhib. (percent inhibition of the molecule using the screen, 100% being a complete inhibition) [%]
O=C(Nc1nc2ccccc2[nH]1)c1ccccc1Br [compound 7263741, N-1H-benzimidazol-2-yl-2-bromobenzamide] | 46
OCc1ccc(Sc2ccc(Cl)cc2)o1 [compound 7586770, {5-[(4-chlorophenyl)thio]-2-furyl}methanol] | 80
C=CCOc1ccc(NC(=O)c2ccc(CN3CCOCC3)cc2)cc1 [compound 7991998, N-[4-(allyloxy)phenyl]-4-(4-morpholinomethyl)benzamide] | 60
Cc1ccc(NC2=Nn3c(Cc4ccccc4)nnc3SC2)cc1 [compound 9016022, 3-benzyl-N-(4-methylphenyl)-7H-[1,2,4]triazolo[3,4-b][1,3,4]thiadiazin-6-amine] | 46
O=S(=O)(NCc1ccncc1)c1cccc(F)c1 [compound 9019912, 3-fluoro-N-(4-pyridinylmethyl)benzenesulfonamide] | 58
Cc1cc(S(=O)(=O)NCc2ccncc2)ccc1F [compound 9021391, 4-fluoro-3-methyl-N-(4-pyridinylmethyl)benzenesulfonamide] | 66
CC1=Nc2ccccc2NC2=C1C(=O)CC(c1ccco1)C2 (stereo not drawn) [compound 9025733, 3-(2-furyl)-11-methyl-2,3,4,5-tetrahydro-1H-dibenzo[b,e][1,4]diazepin-1-one] | 84
CC(C)(C)NS(=O)(=O)c1ccc(NC(=O)c2ccncc2)cc1 [compound 9038066, N-{4-[(tert-butylamino)sulfonyl]phenyl}isonicotinamide] | 54
Cc1ccc(C(C)NC(=O)c2c(Cl)cnn2C)cc1C (stereo not drawn) [compound 9043411, 4-chloro-N-[1-(3,4-dimethylphenyl)ethyl]-1-methyl-1H-pyrazole-5-carboxamide] | 37
Cc1nn2c(=O)cc(-c3ccc(Cl)cc3)[nH]c2c1-c1ccccc1 [compound 9080334, 5-(4-chlorophenyl)-2-methyl-3-phenylpyrazolo[1,5-a]pyrimidin-7(4H)-one] | 41
CC(Nc1ncnc2c1oc1ccccc12)c1ccccc1.Cl (stereo not drawn) [compound 9104696, N-(1-phenylethyl)[1]benzofuro[3,2-d]pyrimidin-4-amine hydrochloride] | 75
CCN(CC)C(=O)c1ccc(Cl)c(N)c1 [compound 9116592, 3-amino-4-chloro-N,N-diethylbenzamide] | 92
